# In patent US20140329844A1, “METHOD OF RESTORING THE INCRETIN EFFECT” (NEURENDO PHARMA, LLC, priority 2006, published 2014):
# Several values for one entry are separate records, joined by “and”; a condition that tells them apart may be missing. Equal values may be shown once.
# How the values were obtained:
# [1] = Daily blood glucose profile of a subject with early stage Type 2 diabetes during GNTI administration; format: in vivo; conditions: human; for Average blood glucose by day of week / Readings In Target, 65-155 (as %) / Readings Lows, 51-64 (as %): GNTI once weekly
# Protocol: The daily blood glucose profile of a subject with early stage, [non-insulin dependent] Type 2 diabetes was monitored during extended periods of administration of guanidinylated naltrindole (GNTI).
# A weekly dose of about 70 ng/kg was administered.
# FIGS. 1-3 illustrate the blood glucose readings over an extended period of time, a modal week and a modal day. The target blood glucose range was 65-155 mg/dL. Table 3 illustrates that 98% of the readings were within the target range. The other 2% of the readings fell below the target range and fell between 51-64 mg/dL.
# FIGS. 1-3 illustrate the subject's blood glucose readings over an extended period of time, a modal week, and a modal day. Accordingly, 227 blood glucose readings were taken, averaging 92 mg/dL over a 15 day period. 98% of all readings were between 65 and 127 mg/dL, and 2% between […], representing a very narrow overall spread.
# [2] = Blood glucose, HDL-C and triglycerides in rhesus monkeys after an oral dose of GNTI; format: in vivo, rhesus monkey
# Protocol: A cohort of rhesus monkeys having progressively increasing degrees of impaired glucose tolerance were monitored following an oral dose of GNTI of 86 ng/kg of body weight. Baseline readings of blood glucose (BC), high density lipoprotein C (HDL-C) and triglycerides (TO) were taken on Day 0.
# The effect of GNTI was most readily seen in the change of blood glucose and blood lipid levels. […] The other 4 subjects of the cohort, i.e., r98060, r96027, r00072, r01078, had baseline blood glucose levels ranging from 71-81 and were considered to have impaired glucose tolerance.
# [3] = Weight (BMI) of the subject with early stage Type 2 diabetes during GNTI administration; format: in vivo; conditions: human, extended periods of GNTI administration
# From the text: The weight of the subject with early stage Type 2 diabetes mellitus was also monitored during extended periods of administration on GNTI, decreasing from, a baseline body mass index (BMI) of 25 to an average BMI of 22.8, corresponding to a reduction by about 9%.
# [4] = GNTI about 70 ng/kg weekly, Early AM 00:00-04:59
# [5] = GNTI about 70 ng/kg weekly, Evening 15:00-18:59
# [6] = GNTI about 70 ng/kg weekly, Midday 11:00-14:59
# [7] = GNTI about 70 ng/kg weekly, Morning 05:00-10:59
# [8] = GNTI about 70 ng/kg weekly, Night 19:00-23:59
# [9] = GNTI about 70 ng/kg weekly, all readings, 15 day period
# [10] = GNTI about 70 ng/kg weekly, of 227 readings
# [11] = GNTI about 70 ng/kg weekly, overall
# [12] = early stage Type 2 diabetes, GNTI about 70 ng/kg weekly, 15 days
# [13] = four dyslipidemic rhesus monkeys, day 8, oral GNTI 86 ng/kg
# [14] = rhesus monkeys, individual animals, Day 8 after oral GNTI 86 ng/kg on Day 0
structure (smiles),measurement,setting,value
"NC(N)=Nc1ccc2[nH]c3c(c2c1)C[C@@]1(O)[C@H]2Cc4ccc(O)c5c4[C@@]1(CCN2CC1CC1)[C@H]3O5 [GNTI, guanidinylated naltrindole]",Average blood glucose,[1]; [4],79 mg/dL
same,"Readings In Target, 65-155 mg/dL",[1]; [4],100%
same,Average blood glucose,[1]; [5],91 mg/dL
same,"Readings In Target, 65-155 mg/dL",[1]; [5],100%
same,Average blood glucose,[1]; [6],92 mg/dL
same,"Readings In Target, 65-155 mg/dL",[1]; [6],98%
same,"Readings Lows, 51-64 mg/dL",[1]; [6],2%
same,Average blood glucose,[1]; [7],90 mg/dL
same,"Readings In Target, 65-155 mg/dL",[1]; [7],97%
same,"Readings Lows, 51-64 mg/dL",[1]; [7],3%
same,Average blood glucose,[1]; [8],95 mg/dL
same,"Readings In Target, 65-155 mg/dL",[1]; [8],97%
same,"Readings Lows, 51-64 mg/dL",[1]; [8],3%
same,Readings between 61 and 65 mg/dL,[1]; [9],2%
same,Readings between 65 and 127 mg/dL,[1]; [9],98%
same,Number of readings High (156-300 mg/dL),[1]; [10],0
same,Number of readings Low (51-64 mg/dL),[1]; [10],5
same,Number of readings Target (65-155 mg/dL),[1]; [10],222
same,Number of readings Very High (301-601 mg/dL),[1]; [10],0
same,Number of readings Very Low (0-50 mg/dL),[1]; [10],0
same,Percent of readings High (156-300 mg/dL),[1]; [11],0%
same,Percent of readings Very High (301-601 mg/dL),[1]; [11],0%
same,Percent of readings Very Low (0-50 mg/dL),[1]; [11],0%
same,"Readings In Target, 65-155 mg/dL",[1]; [11],98%
same,"Readings Lows, 51-64 mg/dL",[1]; [11],2%
same,Readings in the hypoglycemic range,"[1]; GNTI about 70 ng/kg weekly, readings below target range",none of these readings were in the hypoglycemic range
same,Average blood glucose by day of week,[1]; Fri,96 mg/dL
same,"Readings In Target, 65-155 (as %)",[1]; Fri,100%
same,Average blood glucose by day of week,[1]; Mon,92 mg/dL
same,"Readings In Target, 65-155 (as %)",[1]; Mon,100%
same,Average blood glucose by day of week,[1]; Sat,92 mg/dL
same,"Readings In Target, 65-155 (as %)",[1]; Sat,100%
same,Average blood glucose by day of week,[1]; Sun,92 mg/dL
same,"Readings In Target, 65-155 (as %)",[1]; Sun,100%
same,Average blood glucose by day of week,[1]; Thur,94 mg/dL
same,"Readings In Target, 65-155 (as %)",[1]; Thur,100%
same,Average blood glucose by day of week,[1]; Tue,87 mg/dL
same,"Readings In Target, 65-155 (as %)",[1]; Tue,87%
same,"Readings Lows, 51-64 (as %)",[1]; Tue,13%
same,Average blood glucose by day of week,[1]; Wed,88 mg/dL
same,"Readings In Target, 65-155 (as %)",[1]; Wed,93%
same,"Readings Lows, 51-64 (as %)",[1]; Wed,7%
same,Average blood glucose by day of week,[1]; Weekdays,92 mg/dL
same,"Readings In Target, 65-155 (as %)",[1]; Weekdays,97%
same,"Readings Lows, 51-64 (as %)",[1]; Weekdays,3%
same,Average blood glucose by day of week,[1]; Weekends,92 mg/dL
same,"Readings In Target, 65-155 (as %)",[1]; Weekends,100%
same,Highest Blood Glucose,[1]; [12],127 mg/dL
same,Lowest Blood Glucose,[1]; [12],61 mg/dL
same,Average blood glucose,"[1]; early stage Type 2 diabetes, GNTI about 70 ng/kg weekly, overall, 15 days, 227 readings",92 mg/dL
same,Maintenance of blood glucose levels within the target range,"[1]; once weekly administration, target 65-155 mg/dL",aided in maintaining blood glucose levels within the target range
same,"Decrease in blood glucose, average","[2]; 4 rhesus monkeys having impaired glucose tolerance, day 8, oral GNTI 86 ng/kg",26%
same,"HDL-C increase, average",[2]; [13],23%
same,"HDL-C increase, range",[2]; [13],10-31%
same,Decrease in blood glucose levels,"[2]; glucose normal rhesus monkey r89163, day 8, oral GNTI 86 ng/kg",3%
same,Increase in HDL-C lipid levels,"[2]; lipid normal rhesus monkey r98068, day 8, oral GNTI 86 ng/kg",5%
same,BG,[2]; [14],51 mg/dL and 53 mg/dL and 67 mg/dL and 56 mg/dL and 63 mg/dL
same,HDL-C,[2]; [14],85 mg/dL and 46 mg/dL and 61 mg/dL and 63 mg/dL and 84 mg/dL
same,TG,[2]; [14],<45 mg/dL (3×) and 89 mg/dL and 60 mg/dL
same,BG Change,"[2]; rhesus monkeys, individual animals, Day 8 vs Baseline, oral GNTI 86 ng/kg",(−3%)
same,Reduction of BMI from baseline,[3],about 9%
same,Average body mass index (BMI),[3]; baseline BMI 25,22.8
